The test system of one assay is humans. On the set-up: method as in PMID 4392006, PMID 7437258. The conditions noted are these: dose range of 10–30 mg ref 15, 16; cited from earlier work.
The subject of a further assay is mice. On the set-up: method as in PMID 34896117. Particulars: moderate and high doses ref 2; cited from earlier work.
The target in another assay is rSERT (Rattus norvegicus, UniProt P31652). Type of assay: cell-based. On the set-up: expressed in transfected cells. Particulars: for Mean diff, rSERT efflux ± Mon (Šídák's multiple comparisons test): drug alone vs drug + monensin (Mon). The protocol: A day prior to the experiment, HEK293 cells stably expressing hSERT or rat SERT (rSERT) were seeded at a density of 100,000 cells per channel into 6 channel flow ibidi slides (Gräfelfing, Germany). On the day of the experiments, cells were preloaded with 0.1 μM [^3H]5-HT at 37 °C, 5% CO2 for 20 min. Subsequently, the slides were transferred to the superfusion apparatus ([59]). Cells were then washed with KHB for 15 min under a constant flow of 0.5 ml/min. Fractions were collected every 2 min in 8 ml vials containing 2 ml scintillation cocktail. Collection began with three baseline fractions using KHB, followed by four additional basal release fractions with KHB, either with or without 10 μM monensin. […] To assess residual radioactivity within the cells, they were lysed with 1% sodium dodecyl sulfate (SDS), and three final fractions were obtained. The measured tritiated substrate in each fraction was expressed as a percentage of the initial tritiated substrate present at the start of that fraction.
Uptake inhibition data were evaluated by one-way ANOVA followed by Tukey's multiple comparisons test. Release data were analyzed using a two-way ANOVA (batch release) or a mixed-effects model with Geisser-Greenhouse correction (time-dependent traces) employing Šidák correction for comparing differences between compounds with or without the addition of monensin.

Read-outs that look alike come from different tables or passages of the source.

Chain of rSERT (P31652 whole entry, the tested form may be a part): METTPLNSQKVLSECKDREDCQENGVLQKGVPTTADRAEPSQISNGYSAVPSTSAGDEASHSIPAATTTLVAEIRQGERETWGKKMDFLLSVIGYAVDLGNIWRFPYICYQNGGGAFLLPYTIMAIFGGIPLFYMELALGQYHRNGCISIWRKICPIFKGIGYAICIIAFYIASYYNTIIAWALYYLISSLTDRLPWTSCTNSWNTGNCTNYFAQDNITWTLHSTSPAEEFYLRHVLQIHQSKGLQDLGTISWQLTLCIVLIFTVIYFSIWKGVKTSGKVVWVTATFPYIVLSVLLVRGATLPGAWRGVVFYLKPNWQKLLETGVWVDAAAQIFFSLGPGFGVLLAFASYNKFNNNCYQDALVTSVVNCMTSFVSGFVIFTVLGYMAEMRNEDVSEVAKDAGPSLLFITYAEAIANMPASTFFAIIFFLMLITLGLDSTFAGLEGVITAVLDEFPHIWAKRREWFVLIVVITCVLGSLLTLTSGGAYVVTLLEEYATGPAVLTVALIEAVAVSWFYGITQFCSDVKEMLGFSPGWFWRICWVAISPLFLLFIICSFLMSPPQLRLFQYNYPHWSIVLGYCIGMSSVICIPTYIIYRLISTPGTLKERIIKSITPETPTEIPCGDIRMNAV

Regarding `CCCC(Cc1ccccc1)N1CCCC1` (stereo not drawn) [Prolintane, 1-(1-phenylpentan-2-yl)pyrrolidine], the clinical effects entry in the assay with humans was “dose-dependent psychostimulant effects, sympathomimetic effects and reduced total rapid eye movement (REM) sleep”. For the same compound, in the assay with mice, the abuse-related behavioural effects entry was “rewarding and reinforcing effects”. Further, the “Mean diff, rSERT efflux ± Mon (Šídák's multiple comparisons test)” value at rSERT (Row 1 (time fraction)) is -0.3272; on rSERT (Row 2 (time fraction)), -0.2896; on rSERT (Row 3 (time fraction)) it was -0.1547; at rSERT (Row 4 (time fraction)) it was -0.119; on rSERT (Row 5 (time fraction)) it was -0.6706; on rSERT (Row 6 (time fraction)), -0.9234. Also, the “Mean diff, rSERT efflux ± Mon (Šídák's multiple comparisons test)” value is recorded as -1.427 on rSERT (Row 7 (time fraction)); -2.621 on rSERT (Row 8 (time fraction)); -2.612 at rSERT (Row 9 (time fraction)); -2.362 at rSERT (Row 10 (time fraction)); -2.416 at rSERT (Row 11 (time fraction)); -2.279 on rSERT (Row 12 (time fraction)). The “[3H]5-HT releasing profile in cells expressing rSERT” value on rSERT (superfusion, HEK293 cells, with and without monensin) is on record as “almost identical pseudo-efflux releasing profile”.

The values above are taken from article PMC12720098, “Prolintane analogs as hybrid monoamine transporter ligands: Structural determinants and species differences” (The Journal of Biological Chemistry, 2025).
